SMILES strings stand for the structures.

Our source for the Ki, Emax and EC50 values is ChEMBL document CHEMBL1149134, “2-aminothiazole-derived opioids. Bioisosteric replacement of phenols” (J Med Chem, 2004).

In assay [1] the target is T1, Mu-type opioid receptor (Homo sapiens, UniProt P35372). More on the design: species or system Cricetulus griseus.
Description: Inhibition of [3H]-DAMGO binding to Opioid receptor mu 1 of Chinese hamster ovary membrane
The target of assay [2] is T2, Kappa-type opioid receptor (Homo sapiens, UniProt P41145). More on the design: species or system Cricetulus griseus.
Description: Inhibition of [3H]U-69593 binding to Opioid receptor kappa 1 of Chinese hamster ovary membrane
The target of assay [3] is Delta-type opioid receptor (Homo sapiens, UniProt P41143). Put plainly: Inhibition of [3H]naltrindole binding to opioid receptor delta 1 of Chinese hamster ovary membrane. More on the design: species or system Cricetulus griseus.
Assay [4] has as its target T2, Kappa-type opioid receptor. Kind of assay: Binding ability against kappa opioid receptor by stimulating the [35S]GTP-gamma-S, radioligand in Chinese hamster ovary membranes. The format is functional, cell membranes. The note with it: Cricetulus griseus.
The target in assay [5] is T2, Kappa-type opioid receptor. Put plainly: Agonistic activity against kappa opioid receptor in Chinese hamster ovary membranes. The format is functional, cell membranes, Cricetulus griseus.
The target in assay [6] is T1, Mu-type opioid receptor.
Description: Agonistic activity against Opioid receptor mu 1 in Chinese hamster ovary membranes

T1 sequence (P35372 whole entry): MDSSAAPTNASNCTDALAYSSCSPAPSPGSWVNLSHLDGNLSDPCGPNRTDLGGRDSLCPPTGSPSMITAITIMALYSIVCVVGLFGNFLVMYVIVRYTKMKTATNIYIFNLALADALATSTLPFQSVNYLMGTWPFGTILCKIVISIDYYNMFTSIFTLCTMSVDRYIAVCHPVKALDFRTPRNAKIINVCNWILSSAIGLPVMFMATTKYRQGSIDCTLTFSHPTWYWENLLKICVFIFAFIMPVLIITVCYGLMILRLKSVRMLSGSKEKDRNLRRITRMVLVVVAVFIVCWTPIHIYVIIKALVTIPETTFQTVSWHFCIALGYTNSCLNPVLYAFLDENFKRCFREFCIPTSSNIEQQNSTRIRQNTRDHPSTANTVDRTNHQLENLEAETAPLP
T2 sequence (P41145 whole entry): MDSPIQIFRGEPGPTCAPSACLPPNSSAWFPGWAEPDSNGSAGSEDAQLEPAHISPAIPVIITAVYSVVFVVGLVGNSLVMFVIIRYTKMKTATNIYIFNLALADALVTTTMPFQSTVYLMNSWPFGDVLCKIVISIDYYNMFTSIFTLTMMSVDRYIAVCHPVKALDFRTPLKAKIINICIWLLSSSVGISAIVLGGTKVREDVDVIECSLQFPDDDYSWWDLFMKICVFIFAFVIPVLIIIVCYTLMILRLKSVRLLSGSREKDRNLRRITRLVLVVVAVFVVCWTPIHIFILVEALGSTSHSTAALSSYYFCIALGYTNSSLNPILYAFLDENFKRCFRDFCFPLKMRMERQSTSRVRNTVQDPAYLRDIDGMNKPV
Chain of Delta-type opioid receptor (P41143 whole entry): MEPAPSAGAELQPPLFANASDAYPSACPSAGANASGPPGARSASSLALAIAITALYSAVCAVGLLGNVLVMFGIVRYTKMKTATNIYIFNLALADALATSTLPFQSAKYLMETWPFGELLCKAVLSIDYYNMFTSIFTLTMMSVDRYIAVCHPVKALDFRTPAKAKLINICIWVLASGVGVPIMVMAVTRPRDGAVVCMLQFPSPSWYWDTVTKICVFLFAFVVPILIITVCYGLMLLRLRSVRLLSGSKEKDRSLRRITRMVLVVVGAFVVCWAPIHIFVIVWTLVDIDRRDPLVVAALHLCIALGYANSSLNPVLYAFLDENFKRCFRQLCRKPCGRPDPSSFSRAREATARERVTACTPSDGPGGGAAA

The term Ki denotes a dissociation constant, usually derived from enzyme kinetics or from competition with a known ligand. The low end stands for tighter binding, the high end for weaker binding. For the molecule `Nc1nc2cc3c(cc2s1)C(=O)[C@@H]1C2CCCC[C@]32CCN1CC1CCC1` (some centres not stated), the inhibition constant (Ki) at Mu-type opioid receptor [1] was 200 nM; in assay [2] it was 13 nM; in assay [3], greater than 10000 nM.
In the same order, the values of `CN1CC[C@]23c4c5cc6sc(N)nc6c4O[C@H]2[C@@H](O)CCC3[C@H]1C5` (some centres not stated) are 30 nM, 220 nM and 32 nM.
In the same order, the values of `C[C@H]1[C@H]2Cc3cc4sc(N)nc4cc3[C@]1(C)CCN2CC1CC1` are 48 nM, 6.7 nM and 940 nM.
`C[C@H]1[C@H]2Cc3cc4sc(N)nc4cc3[C@]1(C)CCN2CC1CCC1`: the inhibitory constant (Ki) on Mu-type opioid receptor [1] stood at 8.3 nM; in assay [2], 0.49 nM; in assay [3], 93 nM.
In the same order, the values of `CN1CC[C@]23CCCC[C@H]2[C@H]1Cc1cc2sc(N)nc2cc13` (stereo in doubt; 4) are 1.1 nM, 6.4 nM and 190 nM.
As for `C[C@H]1C2Cc3ccc(O)cc3[C@]1(C)CCN2CC1CC1`, the inhibition constant Ki in assay [2] turned out to be 0.18 nM; in assay [3], 1.1 nM.
What is called Emax is the size of the effect at its maximum, as opposed to the concentration needed. For orientation: EC50 means the concentration that produces a half-maximal response. A low value points to a more potent agent. As for `Nc1nc2cc3c(cc2s1)C[C@@H]1[C@@H]2CCCC[C@]32CCN1CC1CCC1`, in assay [4], the Emax was determined as 80%. The same molecule registered an EC50 in assay [5] of 29 nM.
Turning to `Nc1nc2cc3c(cc2s1)C[C@@H]1[C@@H]2CCCC[C@]32CCN1CC1CC1`, the concentration giving a half-maximal response (EC50) on Mu-type opioid receptor [6] is 73 nM; in assay [5], 2.4 nM. The molecule also came in with a maximum response (Emax) in assay [4] of 80%.
